7 compounds from patent publication US8138338B2, “Aurora kinase inhibitors from an encoded small molecule library” (GlaxoSmithKline LLC, priority 2006, dated 2012) can be followed below.

The test system of one experiment is HCT116 (human colorectal cancer cells). As to the kind of experiment: Cell proliferation assay (MTT) using HCT-116 cell line. Format: cell-based. Conditions: 72 h, human carcinoma cell line HCT-116, three days. As to the method: Cell proliferation assay for Aurora-A compounds using HCT-116 Cell Line HCT116 (human colorectal cancer cells) was obtained from the American Type Culture Collection (Cat. No. CCL-247, Rockville, Md.). Cells were maintained in monolayer culture in McCoy's 5A supplemented with 10% fetal bovine serum (FBS; Omega Scientific, Tarzana, Calif.), 2 mM L-glutamine, 50 IU/ml penicillin and 50 μg/ml streptomycin (Gibco/Invitrogen, Carlsbad, Calif.) in a humidified incubator with 95% air and 5% CO2 at 37° C.
A single cell suspension was prepared by trypsinization, to provide 1.25E4 cells per mL in their respective culture medium. 96 well plates were seeded with 200 μl/well of the cell suspension to provide an initial seeding density of 2500 cells per well. The plates were placed in a tissue culture incubator (5% CO2, 37° C.) overnight to let cells become adherent.
Serial dilutions of the testing compounds were prepared at final concentrations in culture medium from a 10 mM stock solution, and assayed in triplicate. The vehicle was prepared by adjusting culture medium to 0.1% v/v DMSO which corresponds to the concentration of DMSO in the wells with test compounds. Test plates were then placed in a tissue culture incubator (5% CO2, 37° C.) for three days after which the MTT assay was performed.
The MTT assay is a measure of cell viability based on cellular dehydrogenase enzymatic cleavage of the tetrazolium rings in MTT the product of which is measured spectrophotometrically. A 25 μL aliquot of 5 mg/mL MTT (3′[4,5-dimethylthiazol-2-yl]-2,5-diphenyl-tetrazolium bromide, Sigma Cat. No. M2128) prepared in PBS was added directly to the wells. The plates were incubated at 37° C. for two hours, the MTT solution was removed, 150 μL of isopropanol was added to each well, and the plates were rocked at room temperature for 10 minutes. The optical density of the wells was quantitated with a Labsystems Multiskan plate spectrophotometer at 570 nm. Replicate readings were averaged. The results are expressed as a percent of OD signal from control.
Regarding `C=CCN(c1nc(NCCc2c[nH]c3ncccc23)nc(NCc2cccn2C)n1)C1CCCCC1` [Compound 3], the response was half-maximal at 10 µM (EC50).
Same read-out and setting: the same measure for `CCCCN(C)c1nc(NCCc2ccccc2OC)nc(NCCc2c[nH]c3ncccc23)n1` [Compound 2]: 3.6 µM; for `CCCCN(C)c1nc(NCCc2ccccc2OC)nc(NC(Cc2c[nH]c3ncccc23)C(N)=O)n1` (stereo not shown) [Compound 1]: 3.6 µM; for `COc1ccc(Nc2nc(Nc3ccc4ncccc4c3)nc(NC(Cc3c[nH]c4ncccc34)C(N)=O)n2)cc1OC` (stereo not shown) [Compound 7]: 10 µM.

The next experiment deals with secretion of TNF-α from LPS-stimulated human monocytes. As to the kind of experiment: LPS-induced TNF-alpha production in human THP-1 cell line. The experiment is classed as cell-based. The conditions noted are these: LPS-stimulated human monocytes (THP-1), 4 hr; read-out: EC50 for inhibition of TNF-α secretion. The protocol: THP-1 (human, monocytic) cell line was purchased from the American Type Culture Collection (ATCC, Cat. No. TIB 202). Cell line was passaged three times per week in RPMI 1640 (GIBCO), supplemented with 10% heat-inactivated fetal bovine serum (FBS; Omega Scientific, Tarzana, Calif.), 2 mM L-glutamine, 100 U/ml penicillin and 100 μg/ml streptomycin (Gibco/Invitrogen, Carlsbad, Calif.) in a humidified incubator with 95% air and 5% CO2 at 37° C.
For the assay THP-1 cells were harvested, counted and suspended at 1E6 cells/ml in culture medium. […] of cell suspension was added to each well at 96 well plates to provide density of 2×10^5 cells per well. Serial dilutions of P38 compounds were prepared at final concentrations in culture medium from a 10 mM stock solution, and assayed in triplicate. Vehicle was prepared by adjusting culture medium to 0.1% v/v DMSO which corresponds to the concentration of DMSO in the wells with test compounds.
Cells were incubated in presence of the P38 inhibitor for 30 min. After that cells were stimulated with LPS (E. coli 026:B6, 1 μg/ml) for 4 hr at 37° C. in a 5% CO2-incubator. Reaction was stopped by placing samples on ice and centrifuging for 10 min at 1500×g at 4° C. Cell supernatants were harvested and concentration of TNF- was determined by ELISA (BD Pharmingen, San Diego, Calif., Cat. No. 555212), following the manufacturer's instruction. Absorbance read and analyzed at 450 nm on a spectrophotometric ELISA plate reader (Labsystems Multiskan MCC/340). Replicate readings were averaged and the results are expressed as a percent of OD signal from control.
`CONC(=O)c1ccc(C)c(Nc2nc(NCc3cccc(C)c3)nc(N[C@H](C)C(C)(C)C)n2)c1` [Compound 12]: the EC50 (commonly the concentration at which the effect is half-maximal) was 0.122 µM.
On the same count and under the same terms, the same measure for `CONC(=O)c1ccc(C)c(Nc2nc(NCC3CCCC(CN)C3)nc(NC3CCCCC3)n2)c1` (stereo not shown) [Compound 11]: 0.011 µM; for `CONC(=O)c1ccc(C)c(Nc2nc(NCC3CCCC(CN)C3)nc(NC3CCCCC3C)n2)c1` (stereo not shown) [Compound 10]: 0.022 µM.
